Results from paper PMC6591251, “Discovery of potent necroptosis inhibitors targeting RIPK1 kinase activity for the treatment of inflammatory disorder and cancer metastasis” (Cell Death & Disease, 2019).
Entries after “also recorded” stand apart in the source; their conditions may differ.

Experiments:
[1] = 14-day preliminary toxicity, daily oral gavage; assay type: in vivo, C57BL/6 mice
Description: Data represent mean value ± standard deviation. b Plasma pharmacokinetic parameters of PO and IV. c, d C57BL/6 mice (n = 5) were treated with the indicated daily oral gavage dosing of PK68 for successive 14 days. Body weight (c) and hematoxylin-eosin (H&E) staining (d) of mice were analyzed. Control mice received an equal amount of vehicle. Magnification: ×40. Data represent mean value ± standard deviation TEXT PRINTED IN THE PICTURE: (b) no label printed: Tmax (hr): 0.5 (PO (Gavage)); Cmax (ng/mL): 2423 (PO (Gavage)); AUC0-24 (ng/mL*hr): 4821 (PO (Gavage)); AUC0-24 (ng/mL*hr): 1588 (IV (Bolus)); AUCINF (ng/mL*hr): 4897 (PO (Gavage)); AUCINF (ng/mL*hr): 1590 (IV (Bolus)); t1/2 (hr): 1.3 (PO (Gavage)); t1/2 (hr): 1.0 (IV (Bolus)); MRT (hr): 1.8 (PO (Gavage)); MRT (hr): 0.8 (IV (Bolus)); CL (mL/hr/kg): 1258 (IV (Bolus)); CL (mL/min/kg): 21 (IV (Bolus)); Vss (mL/kg): 1009 (IV (Bolus)); Vss (L/kg): 1.0 (IV (Bolus)); F(%): 61 (PO (Gavage)) DOUBTS OF THE COPYIST ABOUT THIS PICTURE: Panel b prints no substance label with the PK table. The name PK68 is printed only in panels c and d, so the label is left empty.
Judging by the PK time curve, the observed plasma levels of PK68 were above its EC50 over a period of 8 h. […] These doses were meant to determine the preliminary toxicity effects of PK68 (Fig. 6c). […] We further performed histology of various tissues from mice that had received 14-day treatment of PK68.

[2] = test system: B16-F10 or RFP-LL/2 cells; assay: Proliferation rate and invasion ability without endothelial monolayer; assay type: cell-based, mouse; conditions: B16-F10 or RFP-LL/2, in vitro
Description: Studies have shown that RIPK1 kinase activity is involved in the promotion of tumor metastasis through death receptor 6-dependent necroptosis of endothelial cells[22] or VEGF-dependent activation of vascular permeability. We thus evaluated the therapeutic effect of PK68 on lung metastasis of mouse melanoma B16-F10 cells in vivo. […] After 2 weeks, the metastasis of B16-F10 cells was measured by histological analysis and assessed as the number of metastasis nodules in the lung. […] Two weeks after intravenous injection of RFP-LL/2 cells, RFP^+ LL/2 cells were isolated from the tumor tissues by flow cytometer sorting and no signal of phosphorylated RIPK1 was detected in these tumors cells (Supplementary Fig. 22). Six hours after intravenous injection of RFP-LL/2 cells into C57BL/6 mice, the RFP-LL/2 cells have extravasated through blood vessels into the lung (Supplementary Fig. 23). […] Further, we evaluated the effect of PK68 on the tumor cell transmigration across the cultured endothelium. We isolated CD31^+ endothelial cells from the lungs and performed the transendothelial migration assay as previously reported. […]
(A-B) B16-F10 and RFP-LL/2 cells were pretreated with indicated compounds for 1h and then cell viability was measured by cell Titer-Glo. (C) B16-F10 and RFP-LL/2 cells were pre-treated with indicated compounds and invasion ability was measured by the transwell assay.

[3] = biological target: TNIK (Homo sapiens, UniProt Q9UKE5); assay: RBC kinase panel; assay type: biochemical; design: purchased Reaction Biology Corporation
Chain of TNIK (Q9UKE5 whole entry): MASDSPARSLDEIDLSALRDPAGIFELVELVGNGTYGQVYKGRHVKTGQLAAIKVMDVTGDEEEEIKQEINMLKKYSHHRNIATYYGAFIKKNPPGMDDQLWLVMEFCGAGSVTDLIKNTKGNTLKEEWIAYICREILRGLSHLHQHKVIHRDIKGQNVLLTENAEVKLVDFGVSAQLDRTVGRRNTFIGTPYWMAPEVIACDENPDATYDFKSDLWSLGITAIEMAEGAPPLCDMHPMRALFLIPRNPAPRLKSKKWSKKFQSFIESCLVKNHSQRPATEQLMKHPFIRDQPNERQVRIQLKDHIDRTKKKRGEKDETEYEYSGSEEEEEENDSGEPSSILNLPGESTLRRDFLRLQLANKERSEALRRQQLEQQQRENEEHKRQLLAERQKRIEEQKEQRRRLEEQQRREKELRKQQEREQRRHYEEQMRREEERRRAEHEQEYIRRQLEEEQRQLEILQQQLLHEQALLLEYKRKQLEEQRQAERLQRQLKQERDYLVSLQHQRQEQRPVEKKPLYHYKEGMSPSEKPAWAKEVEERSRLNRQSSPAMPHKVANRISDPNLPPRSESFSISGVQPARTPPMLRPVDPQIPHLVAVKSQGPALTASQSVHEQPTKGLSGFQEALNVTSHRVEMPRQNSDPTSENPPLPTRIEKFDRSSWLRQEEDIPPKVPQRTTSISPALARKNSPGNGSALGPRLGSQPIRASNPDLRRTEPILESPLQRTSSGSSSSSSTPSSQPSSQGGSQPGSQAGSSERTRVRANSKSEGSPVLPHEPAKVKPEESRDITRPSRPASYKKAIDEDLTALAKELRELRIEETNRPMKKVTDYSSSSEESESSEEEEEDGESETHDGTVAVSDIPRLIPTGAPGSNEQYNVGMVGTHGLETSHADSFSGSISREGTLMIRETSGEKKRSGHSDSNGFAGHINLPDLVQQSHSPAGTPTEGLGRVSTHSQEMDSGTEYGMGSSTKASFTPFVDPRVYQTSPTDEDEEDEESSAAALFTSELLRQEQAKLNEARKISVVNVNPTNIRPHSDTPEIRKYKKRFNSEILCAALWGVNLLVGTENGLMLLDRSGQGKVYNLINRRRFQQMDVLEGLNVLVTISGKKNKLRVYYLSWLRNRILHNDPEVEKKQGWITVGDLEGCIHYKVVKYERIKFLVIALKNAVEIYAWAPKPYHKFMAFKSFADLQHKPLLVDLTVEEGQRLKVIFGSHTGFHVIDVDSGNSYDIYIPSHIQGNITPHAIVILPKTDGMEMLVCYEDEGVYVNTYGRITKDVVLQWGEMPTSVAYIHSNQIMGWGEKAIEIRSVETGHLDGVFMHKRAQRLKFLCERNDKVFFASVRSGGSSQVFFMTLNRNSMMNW
Description: (§1) PK68 was tested at 1 μM in duplicate against a panel of 369 human kinases at Reaction Biology Corporation. Results are viewed in the human kinome phylogenetic tree.
(§2) ^a Compound PK68 was tested at 1 μM in duplicate against 369 kinases using the RBC kinase panel service of Reaction Biology Corporation. All the ATP concentrations used were 10 μM. […] Full protocol details are available at http://www.reactionbiology.com.

[4] = biological target: TRKA (Homo sapiens, UniProt P04629); assay: RBC kinase panel; assay type: biochemical; design: purchased Reaction Biology Corporation
Chain of TRKA (P04629 33-796): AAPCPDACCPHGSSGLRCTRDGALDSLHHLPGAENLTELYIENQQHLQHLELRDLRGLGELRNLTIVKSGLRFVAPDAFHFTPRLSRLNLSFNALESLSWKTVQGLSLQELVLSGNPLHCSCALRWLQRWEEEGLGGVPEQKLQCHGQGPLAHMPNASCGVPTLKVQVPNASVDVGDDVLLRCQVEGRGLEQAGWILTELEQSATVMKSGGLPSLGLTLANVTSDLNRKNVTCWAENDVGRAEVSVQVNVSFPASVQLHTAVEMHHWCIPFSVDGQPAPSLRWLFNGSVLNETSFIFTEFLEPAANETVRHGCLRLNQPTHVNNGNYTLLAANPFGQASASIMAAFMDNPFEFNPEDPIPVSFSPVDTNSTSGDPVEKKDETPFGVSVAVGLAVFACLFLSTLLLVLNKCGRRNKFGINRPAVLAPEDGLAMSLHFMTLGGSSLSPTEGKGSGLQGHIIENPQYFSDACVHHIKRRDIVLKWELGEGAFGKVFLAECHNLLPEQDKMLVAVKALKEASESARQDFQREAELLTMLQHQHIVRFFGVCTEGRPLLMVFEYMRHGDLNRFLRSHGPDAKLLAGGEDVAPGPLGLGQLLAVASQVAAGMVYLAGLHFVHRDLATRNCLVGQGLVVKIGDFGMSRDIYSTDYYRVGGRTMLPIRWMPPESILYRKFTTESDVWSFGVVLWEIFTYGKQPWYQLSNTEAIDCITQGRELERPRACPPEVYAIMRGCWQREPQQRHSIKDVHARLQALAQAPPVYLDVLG
Description: as §1, §2

[5] = 5 and 25 mg/kg, daily oral gavage, 14 days

CC(=O)Nc1nc2ccc(-c3cnc(C)c(NC(=O)OC4CCCCC4)c3)cc2s1 [PK68, cyclohexyl (5-(2-acetamidobenzo[d]thiazol-6-yl)-2-methylpyridin-3-yl)carbamate]
body weight and behavior [1, 5]: normal body weight and behavior | tolerability [1, 5]: well tolerated | toxicity in mice ([1]; 14-day course, 25 mg/kg): no obvious toxicity; also recorded: no detectable toxicity | histology of lung, liver, and heart ([1]; 14-day treatment): normal morphology | proliferation rate and invasion ability [2]: no obvious influence | Activity% ([3]; 1 μM, ATP 10 μM, Data1, Data2): 38.77% | activity at 1 µM ([3]; 1 μM, ATP 10 μM, Data1, Data2): 39% | inhibition at 1 µM ([3]; at 1000 nM): > 50% | Activity% ([4]; 1 μM, ATP 10 μM, Data1, Data2): 28.42% | activity at 1 µM ([4]; 1 μM, ATP 10 μM, Data1, Data2): 29.1% | inhibition at 1 µM ([4]; at 1000 nM): > 50%
